# From patent US9902702B2, “Spirocycloheptanes as inhibitors of rock” (BRISTOL-MYERS SQUIBB COMPANY, priority 2014, dated 2018)
# Molecular target: ROCK2 (Homo sapiens, UniProt O75116)
# Assay: ROCK assay: phosphorylation of FITC peptide substrate, LABCHIP 3000 mobility shift
# Type: biochemical
# Conditions: 5 μM ATP, 1.5 μM peptide substrate; read-out: ROCK2 Activity (ROCK IC50 range)
# Protocol: The effectiveness of compounds of the present invention as ROCK inhibitors can be determined in a 30 μL assay containing 20 mM HEPES, pH 7.5, 20 mM MgCl2, 0.015% Brij-35, 4 mM DTT, 5 μM ATP and 1.5 μM peptide substrate (FITC-AHA-AKRRRLSSLRA-OH). Compounds were dissolved in DMSO so that the final concentration of DMSO was <2%, and the reaction was initiated with Rho kinase variants. After incubation, the reaction was terminated by the addition of EDTA and the phosphorylated and non-phosphorylated peptides separated using a LABCHIP® 3000 Reader (Caliper Life Sciences). […] Compounds were tested in dose-response format, and the inhibition of kinase activity was calculated at each concentration of compound. The inhibition data were fit using a curve-fitting program to determine the IC50; i.e., the concentration of compound required to inhibit 50% of kinase activity.
# Representative Examples were tested in the ROCK assay described above and found having ROCK inhibitory activity.
# Chain of ROCK2 (O75116 whole entry, species assumed): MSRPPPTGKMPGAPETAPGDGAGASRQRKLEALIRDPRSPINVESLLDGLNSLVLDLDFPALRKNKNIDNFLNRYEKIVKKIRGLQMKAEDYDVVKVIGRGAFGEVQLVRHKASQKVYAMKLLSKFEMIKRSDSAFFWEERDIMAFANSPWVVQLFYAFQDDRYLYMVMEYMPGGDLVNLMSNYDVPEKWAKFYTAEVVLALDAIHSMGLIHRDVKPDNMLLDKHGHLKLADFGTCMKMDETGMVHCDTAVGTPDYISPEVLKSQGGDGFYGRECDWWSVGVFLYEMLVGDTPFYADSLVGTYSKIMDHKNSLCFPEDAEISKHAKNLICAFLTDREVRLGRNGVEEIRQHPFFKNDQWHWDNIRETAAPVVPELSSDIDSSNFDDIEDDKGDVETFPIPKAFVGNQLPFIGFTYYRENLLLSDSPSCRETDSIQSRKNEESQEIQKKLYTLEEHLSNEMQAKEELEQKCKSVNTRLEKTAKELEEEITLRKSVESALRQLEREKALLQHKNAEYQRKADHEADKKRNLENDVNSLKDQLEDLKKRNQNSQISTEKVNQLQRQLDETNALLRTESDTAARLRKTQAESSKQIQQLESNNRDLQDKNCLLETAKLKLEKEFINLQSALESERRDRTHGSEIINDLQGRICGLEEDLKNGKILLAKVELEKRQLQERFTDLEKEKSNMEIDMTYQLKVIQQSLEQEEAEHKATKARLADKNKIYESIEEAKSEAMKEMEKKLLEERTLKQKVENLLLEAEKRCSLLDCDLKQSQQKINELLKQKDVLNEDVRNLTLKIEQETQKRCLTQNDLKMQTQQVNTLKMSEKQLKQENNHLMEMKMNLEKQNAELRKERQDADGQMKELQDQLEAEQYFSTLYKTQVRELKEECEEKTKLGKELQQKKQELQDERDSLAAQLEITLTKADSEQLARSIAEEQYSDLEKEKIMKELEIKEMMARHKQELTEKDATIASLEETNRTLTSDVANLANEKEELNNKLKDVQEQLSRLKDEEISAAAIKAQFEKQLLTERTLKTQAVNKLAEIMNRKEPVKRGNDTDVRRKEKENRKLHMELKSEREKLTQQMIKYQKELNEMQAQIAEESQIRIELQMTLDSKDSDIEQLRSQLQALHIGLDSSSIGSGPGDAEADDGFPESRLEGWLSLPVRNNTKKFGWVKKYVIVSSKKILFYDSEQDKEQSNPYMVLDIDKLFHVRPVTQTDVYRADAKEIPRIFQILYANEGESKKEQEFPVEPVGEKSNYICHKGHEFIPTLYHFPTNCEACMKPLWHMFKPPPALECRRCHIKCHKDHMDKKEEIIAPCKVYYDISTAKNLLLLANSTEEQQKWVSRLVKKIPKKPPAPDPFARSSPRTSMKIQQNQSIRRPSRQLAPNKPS
row,IC50 [nM],SMILES
1,100 to 2100,"Cc1nnc(NC(=O)C2CC3(C2)CC(c2n[nH]c(=O)c4ccccc24)C3)s1 (centres unmarked) [Example 48, N-(5-methyl-1,3,4-thiadiazol-2-yl)-6-(4-oxo-3,4-dihydrophthalazin-1-yl)spiro[3.3]heptane-2-carboxamide]"
2,100 to 2100,"Cc1cc(NC(=O)C2CC3(C2)CC(c2n[nH]c(=O)c4ccccc24)C3)no1 (centres unmarked) [Example 49, N-(5-methyl-1,2-oxazol-3-yl)-6-(4-oxo-3,4-dihydrophthalazin-1-yl)spiro[3.3]heptane-2-carboxamide]"
3,5.1 to 15,"[H][C@]1(c2n[nH]c(=O)c3ccccc32)C[C@]2(C[C@@H](NC(=O)N3CCc4ccccc43)C2)C1 (stereo partly drawn) [Example 50, N-((aR)-6-(4-Oxo-3,4-dihydrophthalazin-1-yl)spiro[3.3]heptan-2-yl)indoline-1-carboxamide]"
4,5.1 to 15,"O=C(N[C@H]1CC2(C1)C[C@H](c1n[nH]c(=O)c3ccccc31)C2)N1Cc2ccccc2C1 (stereo partly drawn) [Example 51, N-((aR)-6-(4-Oxo-3,4-dihydrophthalazin-1-yl)spiro[3.3]heptan-2-yl)isoindoline-2-carboxamide]"
5,15.1 to 100,"O=C(CC1CC2(C1)CC(c1n[nH]c(=O)c3ccccc13)C2)N1CCc2ccccc21 (centres unmarked) [Example 52, 4-(6-(2-(Indolin-1-yl)-2-oxoethyl)spiro[3.3]heptan-2-yl)phthalazin-1(2H)-one]"
6,2.01 to 5,"Cc1sc(N2CC[C@@H](F)C2)nc1C(=O)N[C@H]1CC2(C1)C[C@H](c1n[nH]c(=O)c3ccccc31)C2 (stereo partly drawn) [Example 53, 2-((R)-3-fluoropyrrolidin-1-yl)-5-methyl-N-((aR)-6-(4-oxo-3,4-dihydrophthalazin-1-yl)spiro[3.3]heptan-2-yl)thiazole-4-carboxamide]"
7,0.2 to 2,"Cc1sc(N2CCC(F)(F)C2)nc1C(=O)NC1CC2(C1)CC(c1n[nH]c(=O)c3ccccc13)C2 [Example 54, 2-(3,3-difluoropyrrolidin-1-yl)-5-methyl-N-((aR)-6-(4-oxo-3,4-dihydrophthalazin-1-yl)spiro[3.3]heptan-2-yl)thiazole-4-carboxamide]"
8,5.1 to 15,"Cc1sc(N2CCC(C#N)C2)nc1C(=O)NC1CC2(C1)CC(c1n[nH]c(=O)c3ccccc13)C2 [Example 55, 2-((S)-3-cyanopyrrolidin-1-yl)-5-methyl-N-((aR)-6-(4-oxo-3,4-dihydrophthalazin-1-yl)spiro[3.3]heptan-2-yl)thiazole-4-carboxamide]"
9,5.1 to 15,"Cc1sc(N2CCC(C#N)C2)nc1C(=O)NC1CC2(C1)CC(c1n[nH]c(=O)c3ccccc13)C2 [Example 56, 2-((R)-3-cyanopyrrolidin-1-yl)-5-methyl-N-((aR)-6-(4-oxo-3,4-dihydrophthalazin-1-yl)spiro[3.3]heptan-2-yl)thiazole-4-carboxamide]"
10,5.1 to 15,"Cc1sc(NC2CC(F)(F)C2)nc1C(=O)NC1CC2(C1)CC(c1n[nH]c(=O)c3ccccc13)C2 [Example 57, 2-((3,3-difluorocyclobutyl)amino)-5-methyl-N-((aR)-6-(4-oxo-3,4-dihydrophthalazin-1-yl)spiro[3.3]heptan-2-yl)thiazole-4-carboxamide]"
11,2.01 to 5,"Cc1sc(N2CCC(F)C2)nc1C(=O)NC1CC2(C1)CC(c1n[nH]c(=O)c3ccccc13)C2 [Example 58, 2-((S)-3-fluoropyrrolidin-1-yl)-5-methyl-N-((aR)-6-(4-oxo-3,4-dihydrophthalazin-1-yl)spiro[3.3]heptan-2-yl)thiazole-4-carboxamide]"
12,5.1 to 15,"Cc1sc(N2CCCC2C(F)(F)F)nc1C(=O)NC1CC2(C1)CC(c1n[nH]c(=O)c3ccccc13)C2 [Example 59, 5-methyl-N-((aR)-6-(4-oxo-3,4-dihydrophthalazin-1-yl)spiro[3.3]heptan-2-yl)-2-((S)-2-(trifluoromethyl)pyrrolidin-1-yl)thiazole-4-carboxamide]"
13,15.1 to 100,"Cc1sc(N2CCCC2C(F)(F)F)nc1C(=O)NC1CC2(C1)CC(c1n[nH]c(=O)c3ccccc13)C2 [Example 60, 5-methyl-N-((aR)-6-(4-oxo-3,4-dihydrophthalazin-1-yl)spiro[3.3]heptan-2-yl)-2-((R)-2-(trifluoromethyl)pyrrolidin-1-yl)thiazole-4-carboxamide]"
14,2.01 to 5,"COc1ccc2c(c1)c(C(=O)NC1CC3(C1)CC(c1n[nH]c(=O)c4ccccc14)C3)nn2CC(C)(C)O [Example 61, 1-(2-hydroxy-2-methylpropyl)-5-methoxy-N-((aR)-6-(4-oxo-3,4-dihydrophthalazin-1-yl)spiro[3.3]heptan-2-yl)-1H-indazole-3-carboxamide]"
15,0.2 to 2,"COc1ccc2c(C(=O)NC3CC4(C3)CC(c3n[nH]c(=O)c5ccccc35)C4)nn(CC(C)(C)O)c2c1 [Example 62, 1-(2-hydroxy-2-methylpropyl)-6-methoxy-N-((aR)-6-(4-oxo-3,4-dihydrophthalazin-1-yl)spiro[3.3]heptan-2-yl)-1H-indazole-3-carboxamide]"
16,0.2 to 2,"COc1ccc2c(C(=O)NC3CC4(C3)CC(c3n[nH]c(=O)c5ccccc35)C4)cnn2c1 [Example 63, 6-methoxy-N-((aR)-6-(4-oxo-3,4-dihydrophthalazin-1-yl)spiro[3.3]heptan-2-yl)pyrazolo[1,5-a]pyridine-3-carboxamide]"
17,5.1 to 15,"COc1ccn2ncc(C(=O)NC3CC4(C3)CC(c3n[nH]c(=O)c5ccccc35)C4)c2c1 [Example 64, 5-methoxy-N-((aR)-6-(4-oxo-3,4-dihydrophthalazin-1-yl)spiro[3.3]heptan-2-yl)pyrazolo[1,5-a]pyridine-3-carboxamide]"
18,2.01 to 5,"CC(C)(O)Cn1nc(C(=O)NC2CC3(C2)CC(c2n[nH]c(=O)c4ccccc24)C3)c2cc(F)ccc21 [Example 65, 5-fluoro-1-(2-hydroxy-2-methylpropyl)-N-((aR)-6-(4-oxo-3,4-dihydrophthalazin-1-yl)spiro[3.3]heptan-2-yl)-1H-indazole-3-carboxamide]"
19,5.1 to 15,"CC(C)(O)Cn1cc(C(=O)NC2CC3(C2)CC(c2n[nH]c(=O)c4ccccc24)C3)c2cccnc21 [Example 66, 1-(2-hydroxy-2-methylpropyl)-N-((aR)-6-(4-oxo-3,4-dihydrophthalazin-1-yl)spiro[3.3]heptan-2-yl)-1H-pyrrolo[2,3-b]pyridine-3-carboxamide]"
20,2.01 to 5,"CC(C)(O)COc1ccc2c(C(=O)NC3CC4(C3)CC(c3n[nH]c(=O)c5ccccc35)C4)cnn2c1 [Example 67, 6-(2-hydroxy-2-methylpropoxy)-N-((aR)-6-(4-oxo-3,4-dihydrophthalazin-1-yl)spiro[3.3]heptan-2-yl)pyrazolo[1,5-a]pyridine-3-carboxamide]"
21,2.01 to 5,"O=C(NC1CC2(C1)CC(c1n[nH]c(=O)c3ccccc13)C2)c1cnn2cc(OCCN3CCOCC3)ccc12 [Example 68, 6-(2-morpholinoethoxy)-N-((aR)-6-(4-oxo-3,4-dihydrophthalazin-1-yl)spiro[3.3]heptan-2-yl)pyrazolo[1,5-a]pyridine-3-carboxamide]"
22,2.01 to 5,"O=C(NC1CC2(C1)CC(c1n[nH]c(=O)c3ccccc13)C2)c1cnc(N2CCOCC2)s1 [Example 69, 2-morpholino-N-((aR)-6-(4-oxo-3,4-dihydrophthalazin-1-yl)spiro[3.3]heptan-2-yl)thiazole-5-carboxamide]"
23,2.01 to 5,"O=C(NC1CC2(C1)CC(c1n[nH]c(=O)c3ccccc13)C2)c1cnc(N2CCCC2)s1 [Example 70, N-((aR)-6-(4-oxo-3,4-dihydrophthalazin-1-yl)spiro[3.3]heptan-2-yl)-2-(pyrrolidin-1-yl)thiazole-5-carboxamide]"
24,5.1 to 15,"O=C(NC1CC2(C1)CC(c1n[nH]c(=O)c3ccccc13)C2)c1noc2ccccc12 [Example 71, N-((aR)-6-(4-oxo-3,4-dihydrophthalazin-1-yl)spiro[3.3]heptan-2-yl)benzo[d]isoxazole-3-carboxamide]"
25,0.2 to 2,"CC(C)(O)Cn1cc(C(=O)NC2CC3(C2)CC(c2n[nH]c(=O)c4ccccc24)C3)c2ccccc21 [Example 72, 1-(2-hydroxy-2-methylpropyl)-N-((aR)-6-(4-oxo-3,4-dihydrophthalazin-1-yl)spiro[3.3]heptan-2-yl)-1H-indole-3-carboxamide]"
26,2.01 to 5,"O=C(NC1CC2(C1)CC(c1n[nH]c(=O)c3ccccc13)C2)c1cnn2ccc(OCCN3CCOCC3)cc12 [Example 73, 5-(2-morpholinoethoxy)-N-((aR)-6-(4-oxo-3,4-dihydrophthalazin-1-yl)spiro[3.3]heptan-2-yl)pyrazolo[1,5-a]pyridine-3-carboxamide]"
27,2.01 to 5,"O=C(NC1CC2(C1)CC(c1n[nH]c(=O)c3ccccc13)C2)c1cnn2ccccc12 [Example 74, N-((aR)-6-(4-oxo-3,4-dihydrophthalazin-1-yl)spiro[3.3]heptan-2-yl)pyrazolo[1,5-a]pyridine-3-carboxamide]"
28,15.1 to 100,"COCC(O)COc1ccn2ncc(C(=O)NC3CC4(C3)CC(c3n[nH]c(=O)c5ccccc35)C4)c2c1 [Example 75, 5-(2-hydroxy-3-methoxypropoxy)-N-((aR)-6-(4-oxo-3,4-dihydrophthalazin-1-yl)spiro[3.3]heptan-2-yl)pyrazolo[1,5-a]pyridine-3-carboxamide]"
29,2.01 to 5,"O=C(NC1CC2(C1)CC(c1n[nH]c(=O)c3ccccc13)C2)c1cnn2cc(N3CCOCC3)ccc12 [Example 76, 6-morpholino-N-((aR)-6-(4-oxo-3,4-dihydrophthalazin-1-yl)spiro[3.3]heptan-2-yl)pyrazolo[1,5-a]pyridine-3-carboxamide]"
